For 34 molecules, IC50 results are on record in patent publication US20240246918A1, “COMPOUNDS AND COMPOSITIONS AS EIF4E INHIBITORS AND THE USES THEREOF” (Ribometrix, Inc., priority 2022, published 2024).

Assay [1] addresses T1, human eIF4E protein (Homo sapiens, UniProt P06730).
T1 construct: purchased Novus NBP-45314
As to the kind of experiment: Biochemical competitive binding assay (TR-FRET competition, EDA-m7GDP-ATTO-647N probe). As to conditions: read-out: hEIF4E TR-FRET IC50. The method in brief:
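His-tagged human eIF4E (4 nM) was preincubated with Eu-anti-His antibody (2.5 nM) and added to compound (11-point, 4-fold dilutions) for 15 min. Then 5 nM EDA-m7GDP-ATTO-647N was added for 15 min, in HEPES pH 7.5, 100 mM KCl. The 665/620 TR-FRET ratio was normalized to controls, and IC50 was taken from 4-parameter fits.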
(In general: In TR-FRET formats the signal depends on donor and acceptor labels being close together.)

The subject of assay [2] is COLO 205 colorectal tumor cells. As to the kind of experiment: Tumor cell viability inhibition assay (CellTiter-Glo 2.0, 72 hours). Type of assay: cell-based. Particulars: COLO 205 cell viability. In outline: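 COLO 205 cells (1500/well, RPMI-1640 + 10% FBS) exposed for 72 h to an 11-point, 4-fold dilution series; cellular ATP read by CellTiter-Glo 2.0 luminescence. Data normalized to DMSO and maximum-inhibition controls; IC50 from 4-parameter curve fit.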
Background: In ATP-based viability assays light output follows the ATP content of the culture.

Each structure is given as a SMILES string.

T1 sequence (P06730 whole entry): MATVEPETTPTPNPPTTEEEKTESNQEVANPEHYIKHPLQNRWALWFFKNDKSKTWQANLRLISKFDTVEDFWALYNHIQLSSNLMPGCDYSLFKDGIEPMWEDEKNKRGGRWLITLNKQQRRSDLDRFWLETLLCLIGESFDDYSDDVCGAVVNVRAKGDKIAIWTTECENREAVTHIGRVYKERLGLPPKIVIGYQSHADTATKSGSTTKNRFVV

What is called IC50 is the concentration that gives 50% inhibition. For `CO[C@@H]1CCN([C@@H]2CCc3nc(C)n(CCOc4ccc(Cl)cc4-c4cc(C)nc5c(C(=O)O)csc45)c(=O)c3C2)CC1(C)C` (single isomer, unassigned) [Compound 376], the IC50 in assay [1] is below 0.1 µM; in assay [2] (Homo sapiens, COLO 205, 72 h) it was below 5 µM.

Take `Cc1cc(-c2cc(Cl)ccc2C#CCn2c(C)nc3c(c2=O)CC(C)(N2CCCC4(C2)CC4(F)F)CC3)c2scc(C(=O)O)c2n1` (single isomer, unassigned) [Compound 608]: the values for the IC50 in assay [1] and in assay [2] were below 0.1 µM and below 5 µM, respectively.

Consider `Cc1cc(-c2cc(Cl)ccc2OCCn2c(C)nc3c(c2=O)C[C@H](N2CCC(c4ccc(F)cc4F)CC2)CC3)c2scc(C(=O)O)c2n1` (single isomer, unassigned) [Compound 418], for which the IC50 in assay [1] is below 0.1 µM; in assay [2] (Homo sapiens, COLO 205, 72 h), below 5 µM.

For the molecule `Cc1cc(-c2cc(Cl)ccc2OCCn2c(C)nc3c(c2=O)C[C@H](N2CC[C@@H](C(F)F)C2)CC3)c2scc(C(=O)O)c2n1` (single isomer, unassigned) [Compound 121], the IC50 is below 0.1 µM in assay [1] and below 5 µM in assay [2] (Homo sapiens, COLO 205, 72 h).

Take `Cc1cc(-c2cc(Cl)ccc2OCCn2c(C)nc3c(c2=O)C[C@H](N2CC[C@@H](OC(F)(F)F)C2)CC3)c2scc(C(=O)O)c2n1` (single isomer, unassigned) [Compound 387]: the IC50 in assay [1] was below 0.1 µM; in assay [2] (Homo sapiens, COLO 205, 72 h), below 5 µM.

For the molecule `Cc1cc(-c2cc(Cl)ccc2OCCn2c(C)nc3c(c2=O)CC(N2CC4(CCCNC4)C2)CC3)c2scc(C(=O)O)c2n1` (single isomer, unassigned) [Compound 509], the 50% inhibitory concentration (IC50) in assay [1] was below 0.1 µM; in assay [2] (Homo sapiens, COLO 205, 72 h), above 20 µM.

`Cc1cc(-c2cc(Cl)ccc2OCCn2c(C)nc3c(c2=O)C[C@@H](N2CCCC[C@@H]2c2cccc(F)c2)CC3)c2scc(C(=O)O)c2n1` (single isomer, unassigned) [Compound 543]: the 50% inhibitory concentration (IC50) was below 0.1 µM in assay [1] and above 20 µM in assay [2] (Homo sapiens, COLO 205, 72 h).

For the molecule `Cc1cc(-c2cc(Cl)ccc2OCCn2c(C)nc3c(c2=O)C[C@@H](N(C)C24CC5CC(CC(C5)C2)C4)CC3)c2scc(C(=O)O)c2n1` (single isomer, unassigned) [Compound 493], the IC50 was below 0.1 µM in assay [1] and below 5 µM in assay [2] (Homo sapiens, COLO 205, 72 h).

Take `Cc1cc(-c2cc(Cl)ccc2OCCn2c(C)nc3c(c2=O)CC(N2CCC(c4cccs4)CC2)CC3)c2scc(C(=O)O)c2n1` (centres unmarked) [Compound 130]: the IC50 is below 0.1 µM in assay [1] and below 5 µM in assay [2] (Homo sapiens, COLO 205, 72 h).

As for `Cc1cc(-c2cc(Cl)ccc2OCCn2c(C)nc3c(c2=O)C[C@H](N2CCC4(CC2)NC(=O)NC4=O)CC3)c2scc(C(=O)O)c2n1` (single isomer, unassigned) [Compound 430], the IC50 in assay [1] is below 0.1 µM; in assay [2] (Homo sapiens, COLO 205, 72 h), below 5 µM.

Consider `Cc1cc(-c2cc(Cl)ccc2OCCn2c(C)nc3c(c2=O)CC(N2CCC(C(F)(F)F)CC2)CC3)c2scc(C(=O)NS(C)(=O)=O)c2n1` (single isomer, unassigned) [Compound 432], for which the IC50 in assay [1] was below 0.1 µM; in assay [2] (Homo sapiens, COLO 205, 72 h) it was below 5 µM.

For the molecule `Cc1cc(-c2cc(Cl)ccc2OCCn2c(C)nc3c(c2=O)C[C@H](N2CCC[C@@H](OC(F)(F)F)C2)CC3)c2scc(C(=O)O)c2n1` (single isomer, unassigned) [Compound 471], the IC50 is below 0.1 µM in assay [1] and below 5 µM in assay [2] (Homo sapiens, COLO 205, 72 h).

With `COc1cc(C2CCN([C@H]3CCc4nc(C)n(CCOc5ccc(Cl)cc5-c5cc(C)nc6c(C(=O)O)csc56)c(=O)c4C3)CC2)ccn1` (single isomer, unassigned) [Compound 576], the IC50 was below 0.1 µM in assay [1] and below 5 µM in assay [2] (Homo sapiens, COLO 205, 72 h).

`Cc1cc(-c2cc(Cl)ccc2OCCn2c(C)nc3c(c2=O)CC(N2CCC(c4ccc(F)cc4)CC2)CC3)c2scc(C(=O)O)c2n1` (centres unmarked) [Compound 132]: the IC50 in assay [1] was below 0.1 µM; in assay [2] (Homo sapiens, COLO 205, 72 h), below 5 µM.

Regarding `Cc1cc(-c2cc(Cl)ccc2OCCn2c(C)nc3c(c2=O)C[C@@H](N(C)[C@H]2CC[C@@](C)(O)CC2)CC3)c2scc(C(=O)O)c2n1` (single isomer, unassigned) [Compound 225], the IC50 in assay [1] was below 0.1 µM; in assay [2] (Homo sapiens, COLO 205, 72 h), above 20 µM.

As to `Cc1cc(-c2cc(Cl)ccc2OCCn2c(C)nc3c(c2=O)C[C@H](N2CCCC[C@@H]2c2cccc(F)c2)CC3)c2scc(C(=O)O)c2n1` (single isomer, unassigned) [Compound 541], the IC50 is below 0.1 µM in assay [1] and below 5 µM in assay [2] (Homo sapiens, COLO 205, 72 h).

Regarding `Cc1cc(-c2cc(Cl)ccc2OCCn2c(C)nc3c(c2=O)CC(N2CC4(CCCNC4)C2)CC3)c2scc(C(=O)O)c2n1` (single isomer, unassigned) [Compound 510], the IC50 in assay [1] was below 0.1 µM; in assay [2], above 20 µM.

`Cc1cc(-c2cc(Cl)ccc2OCCn2c(C)nc3c(c2=O)CC(N2CC4(CCCN(CC(F)(F)F)C4)C2)CC3)c2scc(C(=O)O)c2n1` (single isomer, unassigned) [Compound 508]: the half-maximal inhibitory concentration (IC50) in assay [1] is below 0.1 µM; in assay [2] it was below 5 µM.

Turning to `Cc1cc(-c2cc(Cl)ccc2OCCn2c(C)nc3c(c2=O)C[C@H](N2CCC[C@H](C(F)F)C2)CC32CC2)c2scc(C(=O)O)c2n1` (single isomer, unassigned) [Compound 617], the IC50 in assay [1] was below 0.1 µM; in assay [2] (Homo sapiens, COLO 205, 72 h), below 5 µM.

On to `Cc1cc(-c2cc(Cl)ccc2OCCn2c(C)nc3c(c2=O)CC(C)(N2CCC(C(F)(F)F)CC2)CC3)c2scc(C(=O)O)c2n1` (single isomer, unassigned) [Compound 531], for which the results for the IC50 in assay [1] and in assay [2] were below 0.1 µM and below 5 µM, respectively.

Consider `Cc1csc(C2CCN([C@H]3CCc4nc(C)n(CCOc5ccc(Cl)cc5-c5cc(C)nc6c(C(=O)O)csc56)c(=O)c4C3)CC2)n1` (single isomer, unassigned) [Compound 428], for which the IC50 in assay [1] is below 0.1 µM; in assay [2] (Homo sapiens, COLO 205, 72 h), below 5 µM.

With `Cc1cc(-c2cc(Cl)ccc2OCCn2c(C)nc3c(c2=O)C[C@@H](N2CCC(c4cnc(C(F)(F)F)nc4)CC2)CC3)c2scc(C(=O)O)c2n1` (single isomer, unassigned) [Compound 585], the IC50 was below 0.1 µM in assay [1] and below 5 µM in assay [2] (Homo sapiens, COLO 205, 72 h).

Turning to `Cc1cc(-c2cc(Cl)ccc2OCCn2c(C)nc3c(c2=O)C[C@H](N2C[C@@H]4CC(F)(F)C[C@@H]4C2)CC32CC2)c2scc(C(=O)O)c2n1` (single isomer, unassigned) [Compound 618], the IC50 is below 0.1 µM in assay [1] and below 5 µM in assay [2] (Homo sapiens, COLO 205, 72 h).

As for `Cc1cc(-c2cc(Cl)ccc2OCCn2c(C)nc3c(c2=O)C[C@H](N2CCO[C@H](CC(F)(F)F)C2)CC3)c2scc(C(=O)O)c2n1` (single isomer, unassigned) [Compound 525], the IC50 was below 0.1 µM in assay [1] and below 5 µM in assay [2] (Homo sapiens, COLO 205, 72 h).

Consider `Cc1cc(-c2cc(Cl)ccc2OCCn2c(C)nc3c(c2=O)CC(C)(N2CCC(OC(F)(F)F)CC2)CC3)c2scc(C(=O)O)c2n1` (single isomer, unassigned) [Compound 515], for which the IC50 in assay [1] was below 0.1 µM; in assay [2] (Homo sapiens, COLO 205, 72 h), below 5 µM.

Take `Cc1cc(-c2cc(Cl)ccc2OCCn2c(C)nc3c(c2=O)C[C@H](N2[C@@H]4CC[C@H]2C[C@H](OC(F)(F)F)C4)CC3)c2scc(C(=O)O)c2n1` (single isomer, unassigned) [Compound 399]: the 50% inhibitory concentration (IC50) in assay [1] was below 0.1 µM; in assay [2] (Homo sapiens, COLO 205, 72 h) it was below 5 µM.

Consider `Cc1cc(-c2cc(Cl)ccc2OCCn2c(C)nc3c(c2=O)C[C@H](N2Cc4cc(F)c(F)cc4C2)CC3)c2scc(C(=O)O)c2n1` (single isomer, unassigned) [Compound 532], for which the IC50 in assay [1] is below 0.1 µM; in assay [2] (Homo sapiens, COLO 205, 72 h), below 5 µM.

For `Cc1cc(-c2cc(Cl)ccc2OCCn2c(C)nc3c(c2=O)C[C@@H](N2CCC[C@]4(C2)CC4(F)F)CC32CC2)c2scc(C(=O)O)c2n1` (single isomer, unassigned) [Compound 583], the IC50 in assay [1] was below 0.1 µM; in assay [2] (Homo sapiens, COLO 205, 72 h), below 5 µM.

Take `Cc1cc(-c2cc(Cl)ccc2OCCn2c(C)nc3c(c2=O)C[C@@H](N2CC[C@@H](C(F)F)C2)CC3)c2scc(C(=O)O)c2n1` (single isomer, unassigned) [Compound 120]: the IC50 in assay [1] is below 0.1 µM; in assay [2] (Homo sapiens, COLO 205, 72 h), below 5 µM.

As for `COC1CCN(C2CCc3nc(C)n(CC#Cc4ccc(Cl)cc4-c4ccnc5c(C(=O)O)csc45)c(=O)c3C2)CC1` (single isomer, unassigned) [Compound 365], the IC50 was below 0.1 µM in assay [1] and below 5 µM in assay [2] (Homo sapiens, COLO 205, 72 h).

Regarding `Cc1cc(-c2cc(Cl)ccc2OCCn2c(C)nc3c(c2=O)C[C@@H](N2CCC(c4cc(F)cc(F)c4F)CC2)CC3)c2scc(C(=O)O)c2n1` (single isomer, unassigned) [Compound 574], the IC50 in assay [1] was below 0.1 µM; in assay [2] (Homo sapiens, COLO 205, 72 h) it was below 5 µM.

As for `Cc1cc(-c2cc(Cl)ccc2OCCn2c(C)nc3c(c2=O)C[C@H](N2C[C@@H]4CC[C@H]2CC4OC(F)(F)F)CC32CC2)c2scc(C(=O)O)c2n1` (single isomer, unassigned) [Compound 604], the 50% inhibitory concentration (IC50) was below 0.1 µM in assay [1] and below 5 µM in assay [2] (Homo sapiens, COLO 205, 72 h).

On to `Cc1cc(-c2cc(Cl)ccc2OCCn2c(C)nc3c(c2=O)CC(N2CCC(OC(F)(F)F)CC2)CC3(C)C)c2scc(C(=O)O)c2n1` (single isomer, unassigned) [Compound 443, 7-(5-chloro-2-(2-(2,8,8-trimethyl-4-oxo-6-(4-(trifluoromethoxy)piperidin-1-yl)-5,6,7,8-tetrahydroquinazolin-3(4H)-yl)ethoxy)phenyl)-5-methylthieno[3,2-b]pyridine-3-carboxylic acid], for which the IC50 is below 0.1 µM in assay [1] and below 5 µM in assay [2].

On to `Cc1cc(-c2cc(Cl)ccc2OCCn2c(C)nc3c(c2=O)C[C@@H](N2CCC(COC(F)(F)F)CC2)CC32CC2)c2scc(C(=O)O)c2n1` (single isomer, unassigned) [Compound 561], for which the IC50 in assay [1] was below 0.1 µM; in assay [2] (Homo sapiens, COLO 205, 72 h), below 5 µM.
